# Laboratory results reported in patent US10934283B2, “COMT inhibiting methods and compositions” (LIEBER INSTITUTE FOR BRAIN DEVELOPMENT, priority 2015, dated 2021).
# Columns and labels:
# [1] = Nutt and Fellman 1984; cited from earlier work
# [2] = Russ, et al. 1999; cited from earlier work
# [3] = molecular target: T1, aromatic amino acid decarboxylase (AAAD) (Homo sapiens, UniProt P20711); conditions: given with L-DOPA; Nutt, Woodward et al. 1985; cited from earlier work
# T1 sequence (P20711 1-480): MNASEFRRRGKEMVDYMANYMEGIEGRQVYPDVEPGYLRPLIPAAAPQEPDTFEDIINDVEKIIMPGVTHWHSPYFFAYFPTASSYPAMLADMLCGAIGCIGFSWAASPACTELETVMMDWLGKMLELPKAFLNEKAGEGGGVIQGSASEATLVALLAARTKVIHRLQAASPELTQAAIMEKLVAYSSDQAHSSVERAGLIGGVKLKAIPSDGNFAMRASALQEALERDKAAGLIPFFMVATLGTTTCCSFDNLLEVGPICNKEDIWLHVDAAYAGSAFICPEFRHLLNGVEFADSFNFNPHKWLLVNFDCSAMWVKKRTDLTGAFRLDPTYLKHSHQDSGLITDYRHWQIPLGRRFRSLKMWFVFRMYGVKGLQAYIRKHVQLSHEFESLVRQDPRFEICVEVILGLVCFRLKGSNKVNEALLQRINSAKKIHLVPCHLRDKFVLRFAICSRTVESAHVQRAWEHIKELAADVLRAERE
# [4] = clinical use; Olanow and Watkins 2007; cited from earlier work
# [5] = molecular target: T2, catechol-O-methyltransferase (COMT) (Homo sapiens, UniProt P21964); assay: COMT inhibition assay (HTRF, production of SAH from SAM); assay type: biochemical; conditions: table does not say MB-COMT or S-COMT
# T2 construct: M51A variant) was expressed in HEK 293F cells
# T2 sequence (P21964 52-271 limits assumed): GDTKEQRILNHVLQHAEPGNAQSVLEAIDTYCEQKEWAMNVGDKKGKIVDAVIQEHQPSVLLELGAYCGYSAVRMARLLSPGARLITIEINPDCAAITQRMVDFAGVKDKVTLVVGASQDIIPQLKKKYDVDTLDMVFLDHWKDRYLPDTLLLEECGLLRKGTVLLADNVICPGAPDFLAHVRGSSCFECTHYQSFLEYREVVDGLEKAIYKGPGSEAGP
# Outline: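 Membranes from HEK293F cells expressing MB-COMT (M51A variant) incubated with 20 μM SAM and 1.5 μM dopamine plus compound (10 concentrations) for 40 min at 37 °C; S-COMT (Val158) at 0.15 ng/well used 100 μM dopamine, 15 min. SAH measured by HTRF against a standard curve; pIC50 from 4-parameter logistic fit.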
compound,measurement,setting,value
"N[C@@H](Cc1ccc(O)c(O)c1)C(=O)O [L-DOPA, L-dihydroxyphenylalanine]",percentage of exogenously administered L-DOPA that reaches the brain,[1],~1%
CCN(CC)C(=O)/C(C#N)=C/c1cc(O)c(O)c([N+](=O)[O-])c1 [entacapone],brain penetration,[2],negligible
C[C@@](Cc1ccc(O)c(O)c1)(NN)C(=O)O [Carbidopa],reduction of the efficacious L-DOPA dose,[3],60-80%
Cc1ccc(C(=O)c2cc(O)c(O)c([N+](=O)[O-])c2)cc1 [tolcapone],brain penetration,[2],low but measurable
same,liver injury,[4],"serious liver injury, including three deaths"
"O=c1cc2n(cc1O)CCN(Cc1coc3ccccc3c1=O)C2 [Example 41, 7-hydroxy-2-[(4-oxo-4H-chromen-3-yl)methyl]-1,2,3,4-tetrahydro-8H-pyrido[1,2-a]pyrazin-8-one]",Activity range (pIC50),[5],++ (two plus signs (++) is associated with a pIC50 of from about 6 to 7)
"O=c1cc2n(cc1O)CCN(Cc1ccc(C(F)(F)F)cc1)C2 [Example 2, 7-hydroxy-2-[4-(trifluoromethyl)benzyl]-1,2,3,4-tetrahydro-8H-pyrido[1,2-a]pyrazin-8-one]",Activity range (pIC50),[5],++ (two plus signs (++) is associated with a pIC50 of from about 6 to 7)
"O=c1cc2n(cc1O)CCN(C(c1ccccc1)C1CCCC1)C2 (centres unmarked) [Example 82, 2-[cyclopentyl(phenyl)methyl]-7-hydroxy-1,2,3,4-tetrahydro-8H-pyrido[1,2-a]pyrazin-8-one]",Activity range (pIC50),[5],+++ (three plus signs (+++) is associated with a pIC50 of above about 7)
"O=c1cc2n(cc1O)CCN(Cc1ccccc1)C2c1ccccc1 (centres unmarked) [Example 116, 2-benzyl-7-hydroxy-1-phenyl-1,2,3,4-tetrahydro-8H-pyrido[1,2-a]pyrazin-8-one]",Activity range (pIC50),[5],+++ (three plus signs (+++) is associated with a pIC50 of above about 7)
"O=c1cc2n(cc1O)CCN(Cc1ccccc1F)C2 [Example 39, 2-(2-fluorobenzyl)-7-hydroxy-1,2,3,4-tetrahydro-8H-pyrido[1,2-a]pyrazin-8-one]",Activity range (pIC50),[5],+++ (three plus signs (+++) is associated with a pIC50 of above about 7)
"Cc1nn(-c2ccccc2)c(C)c1CN1CCn2cc(O)c(=O)cc2C1 [Example 103, 2-[(3,5-dimethyl-1-phenyl-1H-pyrazol-4-yl)methyl]-7-hydroxy-1,2,3,4-tetrahydro-8H-pyrido[1,2-a]pyrazin-8-one]",Activity range (pIC50),[5],++ (two plus signs (++) is associated with a pIC50 of from about 6 to 7)
"CCCC(c1ccccc1)N1CCn2cc(O)c(=O)cc2C1 (centres unmarked) [Example 93, 7-hydroxy-2-(1-phenylbutyl)-1,2,3,4-tetrahydro-8H-pyrido[1,2-a]pyrazin-8-one]",Activity range (pIC50),[5],++ (two plus signs (++) is associated with a pIC50 of from about 6 to 7)
"CC(c1cc(F)cc(F)c1F)N1CCn2cc(O)c(=O)cc2C1 (centres unmarked) [Example 75, 7-hydroxy-2-[1-(2,3,5-trifluorophenyl)ethyl]-1,2,3,4-tetrahydro-8H-pyrido[1,2-a]pyrazin-8-one]",Activity range (pIC50),[5],+++ (three plus signs (+++) is associated with a pIC50 of above about 7)
"Cc1ccc(-c2nc3sccn3c2CN2CCn3cc(O)c(=O)cc3C2)cc1 [Example 56, 7-hydroxy-2-{[6-(4-methylphenyl)imidazo[2,1-b][1,3]thiazol-5-yl]methyl}-1,2,3,4-tetrahydro-8H-pyrido[1,2-a]pyrazin-8-one]",Activity range (pIC50),[5],++ (two plus signs (++) is associated with a pIC50 of from about 6 to 7)
"CC(c1cccc(C#N)c1)N1CCn2cc(O)c(=O)cc2C1 (centres unmarked) [Example 95, 3-[1-(7-hydroxy-8-oxo-1,3,4,8-tetrahydro-2H-pyrido[1,2-a]pyrazin-2-yl)ethyl]benzonitrile]",Activity range (pIC50),[5],++ (two plus signs (++) is associated with a pIC50 of from about 6 to 7)
"O=c1cc2n(cc1O)CCN(c1ccccc1)C2 [Example 112, 7-hydroxy-2-phenyl-1,2,3,4-tetrahydro-8H-pyrido[1,2-a]pyrazin-8-one]",Activity range (pIC50),[5],+++ (three plus signs (+++) is associated with a pIC50 of above about 7)
"O=c1cc2n(cc1O)CCN(C(CO)c1ccccc1)C2 (centres unmarked) [Example 100, 7-hydroxy-2-(2-hydroxy-1-phenylethyl)-1,2,3,4-tetrahydro-8H-pyrido[1,2-a]pyrazin-8-one]",Activity range (pIC50),[5],+ (a single plus (+) is associated with a pIC50 of from about 4.5 to 6)
"O=c1cc2n(cc1O)CCN(Cc1ccccc1C(F)(F)F)C2 [Example 44, 7-hydroxy-2-[2-(trifluoromethyl)benzyl]-1,2,3,4-tetrahydro-8H-pyrido[1,2-a]pyrazin-8-one]",Activity range (pIC50),[5],+++ (three plus signs (+++) is associated with a pIC50 of above about 7)
"CC1Cn2cc(O)c(=O)cc2CN1Cc1ccc(OC(F)(F)F)cc1 (centres unmarked) [Example 130, 7-hydroxy-3-methyl-2-[4-(trifluoromethoxy)benzyl]-1,2,3,4-tetrahydro-8H-pyrido[1,2-a]pyrazin-8-one]",Activity range (pIC50),[5],++ (two plus signs (++) is associated with a pIC50 of from about 6 to 7)
"O=c1cc2n(cc1O)CCN(Cc1cc([N+](=O)[O-])c(Cl)cc1Cl)C2 [Example 66, 2-[(2,4-dichloro-5-nitro-phenyl)methyl]-7-hydroxy-3,4-dihydro-1H-pyrido[1,2-a]pyrazin-8-one]",Activity range (pIC50),[5],+++ (three plus signs (+++) is associated with a pIC50 of above about 7)
"CC(c1ccc(Cl)cc1)N1CCn2cc(O)c(=O)cc2C1 (centres unmarked) [Example 68, 2-[1-(4-chlorophenyl)ethyl]-7-hydroxy-1,2,3,4-tetrahydro-8H-pyrido[1,2-a]pyrazin-8-one]",Activity range (pIC50),[5],++ (two plus signs (++) is associated with a pIC50 of from about 6 to 7)
"O=c1cc2n(cc1O)CCN(Cc1ccc(-c3cccnc3)cc1)C2 [Example 12, 7-hydroxy-2-[4-(pyridin-3-yl)benzyl]-1,2,3,4-tetrahydro-8H-pyrido[1,2-a]pyrazin-8-one]",Activity range (pIC50),[5],++ (two plus signs (++) is associated with a pIC50 of from about 6 to 7)
"O=c1cc2n(cc1O)CCN(Cc1ccc(OC(F)(F)F)cc1)C2 [Example 8, 7-hydroxy-2-[4-(trifluoromethoxy)benzyl]-1,2,3,4-tetrahydro-8H-pyrido[1,2-a]pyrazin-8-one]",Activity range (pIC50),[5],+++ (three plus signs (+++) is associated with a pIC50 of above about 7)
